Laboratory results: US20220061324A1, “PESTICIDALLY ACTIVE HETEROCYCLIC DERIVATIVES WITH SULFUR CONTAINING SUBSTITUENTS” (SYNGENTA CROP PROTECTION AG, priority 2018, published 2022)

Legend:
[1] = system: Diabrotica balteata (Corn Root Worm); test: Activity against Diabrotica balteata (corn root worm), maize sprouts sprayed; format: in vivo; settings: 96 h, application rate 200 ppm, L2 larvae, 4 days after infestation, read-out: effect in at least one of the two categories (mortality or growth inhibition)
Description: Example B1: Activity Against Diabrotica balteata (Corn Root Worm)
Maize sprouts placed onto an agar layer in 24-well microtiter plates were treated with aqueous test solutions prepared from 10,000 ppm DMSO stock solutions by spraying. After drying, the plates were infested with L2 larvae (6 to 10 per well). The samples were assessed for mortality and growth inhibition in comparison to untreated samples 4 days after infestation.

[2] = system: Myzus persicae (Green Peach Aphid); test: Activity against Myzus persicae (green peach aphid), feeding/contact activity; format: in vivo; settings: 144 h, application rate 200 ppm, feeding/contact, mixed ages, 6 days after infestation, read-out: mortality
Description: Example B4: Activity Against Myzus persicae (Green Peach Aphid) Feeding/Contact Activity
Sunflower leaf discs were placed onto agar in a 24-well microtiter plate and sprayed with aqueous test solutions prepared from 10,000 ppm DMSO stock solutions. After drying, the leaf discs were infested with an aphid population of mixed ages. The samples were assessed for mortality 6 days after infestation.

[3] = system: Frankliniella occidentalis (Western Flower Thrips); test: Activity against Frankliniella occidentalis (western flower thrips), sunflower leaf discs; format: in vivo; settings: foliar, 168 h, application rate 200 ppm, mixed ages, 7 days after infestation
Description: Example B7: Activity Against Frankliniella occidentalis (Western Flower Thrips)
Sunflower leaf discs were placed on agar in 24-well microtiter plates and sprayed with aqueous test solutions prepared from 10,000 DMSO stock solutions. After drying the leaf discs were infested with a Frankliniella population of mixed ages. The samples were assessed for mortality 7 days after infestation.

[4] = system: Euschistus heros (Neotropical Brown Stink Bug); test: Activity against Euschistus heros (neotropical brown stink bug), soybean leaves sprayed; format: in vivo; settings: 120 h, application rate 200 ppm, N2 nymphs, 5 days after infestation, read-out: effect in at least one of the two categories (mortality or growth inhibition)
Description: Example B2: Activity Against Euschistus heros (Neotropical Brown Stink Bug)
Soybean leaves on agar in 24-well microtiter plates were sprayed with aqueous test solutions prepared from 10,000 ppm DMSO stock solutions. After drying the leaves were infested with N2 nymphs. The samples were assessed for mortality and growth inhibition in comparison to untreated samples 5 days after infestation.

[5] = system: Spodoptera littoralis (Egyptian Cotton Leaf Worm); test: Activity against Spodoptera littoralis (Egyptian cotton leaf worm), cotton leaf discs; format: in vivo; settings: foliar, 72 h, application rate 200 ppm, L1 larvae, 3 days after infestation, read-out: control (mortality, anti-feedant effect or growth inhibition)
Description: Example B5: Activity Against Spodoptera littoralis (Egyptian Cotton Leaf Worm)
Cotton leaf discs were placed onto agar in 24-well microtiter plates and sprayed with aqueous test solutions prepared from 10,000 ppm DMSO stock solutions. After drying the leaf discs were infested with five L1 larvae. The samples were assessed for mortality, anti-feeding effect, and growth inhibition in comparison to untreated samples 3 days after infestation. Control of Spodoptera littoralis by a test sample is given when at least one of the categories mortality, anti-feedant effect, and growth inhibition is higher than the untreated sample.

[6] = system: Plutella xylostella (Diamond Back Moth); test: Activity against Plutella xylostella (diamond back moth), artificial diet; format: in vivo; settings: 192 h, application rate 200 ppm, eggs, 8 days after infestation, read-out: effect in at least one of the two categories (mortality or growth inhibition)
Description: Example B3: Activity Against Plutella xylostella (Diamond Back Moth)
24-well microtiter plates with artificial diet were treated with aqueous test solutions prepared from 10,000 ppm DMSO stock solutions by pipetting. After drying, Plutella eggs were pipetted through a plastic stencil onto a gel blotting paper and the plate was closed with it. The samples were assessed for mortality and growth inhibition in comparison to untreated samples 8 days after infestation.

[7] = system: Bemisia tabaci (Cotton White Fly); test: Activity against Bemisia tabaci (cotton white fly), cotton leaf discs; format: in vivo; settings: foliar, 144 h, application rate 200 ppm, adult white flies, 6 days after incubation
Description: Example B6: Activity Against Bemisia tabaci (Cotton White Fly)
Cotton leaf discs were placed on agar in 24-well microtiter plates and sprayed with aqueous test solutions prepared from 10,000 ppm DMSO stock solutions. After drying the leaf discs were infested with adult white flies. The samples were checked for mortality 6 days after incubation.

[8] = system: Myzus persicae (Green Peach Aphid); test: Activity against Myzus persicae (green peach aphid), systemic activity, pea seedlings; format: in vivo; settings: 144 h, test rate 24 ppm, roots in test solution, 6 days
Description: Example B8: Activity Against Myzus persicae (Green Peach Aphid) Systemic Activity
Roots of pea seedlings infested with an aphid population of mixed ages were placed directly into aqueous test solutions prepared from 10,000 DMSO stock solutions. The samples were assessed for mortality 6 days after placing seedlings into test solutions.

With `CCS(=O)(=O)c1ccc(Cl)nc1-c1ncc2c(OCC(F)(F)C(F)(F)F)nccn12` the melting point was 140 to 143 °C.
In the case of `CCS(=O)(=O)c1ccc(N(C)C(C)=O)nc1-c1ncc2c(OCC(F)(F)C(F)(F)F)nccn12` [Compound P11, N-[5-ethylsulfonyl-6-[8-(2,2,3,3,3-penta-fluoropropoxy)imidazo [1,5-a]pyrazin-3-yl]-2-pyridyl]-N-methyl-acetamide], the percent effect (mortality or growth inhibition) at 200 ppm [1] is reported as ≥ 80%, the mortality at 200 ppm [2] is reported as ≥ 80% and the mortality at 200 ppm [3] is reported as ≥ 80%. The percent effect (mortality or growth inhibition) at 200 ppm [4] was ≥ 80%, the percent control (mortality, anti-feedant effect or growth inhibition) at 200 ppm [5] was ≥ 80% and the percent effect (mortality or growth inhibition) at 200 ppm [6] was ≥ 80%.
In the case of `CCS(=O)(=O)c1ccc(-n2cncn2)nc1-c1ncc2c(OCC(F)(F)C(F)(F)F)nccn12` [Compound P12, 3-[3-ethylsulfonyl-6-(1,2,4-triazol-1-yl)-2-pyridyl]-8-(2,2,3,3,3-penta-fluoropropoxy)imidazo [1,5-a]pyrazine], the percent effect (mortality or growth inhibition) at 200 ppm [1] is reported as ≥ 80%, the mortality at 200 ppm [2] is reported as ≥ 80% and the mortality at 200 ppm [7] is reported as ≥ 80%. The percent effect (mortality or growth inhibition) at 200 ppm [4] was ≥ 80%, the percent control (mortality, anti-feedant effect or growth inhibition) at 200 ppm [5] was ≥ 80% and the percent effect (mortality or growth inhibition) at 200 ppm [6] was ≥ 80%.
In the case of `CCS(=O)(=O)c1cc(N(C)C(C)=O)cnc1-c1ncc2c(OCC(F)(F)C(F)(F)F)nccn12` [Compound P13, N-[5-ethylsulfonyl-6-[8-(2,2,3,3,3-penta-fluoropropoxy)imidazo [1,5-a]pyrazin-3-yl]-3-pyridyl]-N-methyl-acetamide], the mortality at 24 ppm [8] is reported as ≥ 80%, the percent effect (mortality or growth inhibition) at 200 ppm [1] is reported as ≥ 80% and the mortality at 200 ppm [2] is reported as ≥ 80%. For the same compound, the percent effect (mortality or growth inhibition) at 200 ppm [4] was ≥ 80%, the percent control (mortality, anti-feedant effect or growth inhibition) at 200 ppm [5] was ≥ 80% and the percent effect (mortality or growth inhibition) at 200 ppm [6] was ≥ 80%.
For `CCS(=O)(=O)c1cc(C2(C#N)CC2)cnc1-c1ncc2c(OCC(F)(F)C(F)(F)F)nccn12` [Compound P15, 1-[5-ethylsulfonyl-6-[8-(2,2,3,3,3-penta-fluoropropoxy)imidazo [1,5-a]pyrazin-3-yl]-3-pyridyl]cyclopropane-carbonitrile], the percent effect (mortality or growth inhibition) at 200 ppm [1] was ≥ 80%, the mortality at 200 ppm [2] was ≥ 80% and the percent effect (mortality or growth inhibition) at 200 ppm [4] was ≥ 80%. For the same compound, the percent control (mortality, anti-feedant effect or growth inhibition) at 200 ppm [5] was ≥ 80% and the percent effect (mortality or growth inhibition) at 200 ppm [6] was ≥ 80%.
For `CCSc1cc(N=S(C)(C)=O)cnc1-c1ncc2c(OCC(F)(F)C(F)(F)F)nccn12` [Compound P17, [5-ethylsulfanyl-6-[8-(2,2,3,3,3-penta-fluoropropoxy)imidazo [1,5-a]pyrazin-3-yl]-3-pyridyl]imino-dimethyl-oxo-λ^6-sulfane], the percent effect (mortality or growth inhibition) at 200 ppm [1] was ≥ 80%, the mortality at 200 ppm [3] was ≥ 80% and the percent effect (mortality or growth inhibition) at 200 ppm [4] was ≥ 80%. For the same compound, the percent control (mortality, anti-feedant effect or growth inhibition) at 200 ppm [5] was ≥ 80% and the percent effect (mortality or growth inhibition) at 200 ppm [6] was ≥ 80%.
For `CCS(=O)(=O)c1cc(N=S(C)(C)=O)cnc1-c1ncc2c(OCC(F)(F)C(F)(F)F)nccn12` [Compound P18, [5-ethylsulfonyl-6-[8-(2,2,3,3,3-penta-fluoropropoxy)imidazo [1,5-a]pyrazin-3-yl]-3-pyridyl]imino-dimethyl-oxo-λ^6-sulfane], the percent effect (mortality or growth inhibition) at 200 ppm [1] was ≥ 80%, the mortality at 200 ppm [2] was ≥ 80% and the mortality at 200 ppm [3] was ≥ 80%. For the same compound, the percent effect (mortality or growth inhibition) at 200 ppm [4] was ≥ 80%, the percent control (mortality, anti-feedant effect or growth inhibition) at 200 ppm [5] was ≥ 80% and the percent effect (mortality or growth inhibition) at 200 ppm [6] was ≥ 80%.
With `CCS(=O)(=O)c1cc(Oc2ccccn2)cnc1-c1ncc2c(OCC(F)(F)C(F)(F)F)nccn12` [Compound P19, 3-[3-ethylsulfonyl-5-(2-pyridyloxy)-2-pyridyl]-8-(2,2,3,3,3-penta-fluoropropoxy)imidazo [1,5-a]pyrazine] the percent effect (mortality or growth inhibition) at 200 ppm [1] was ≥ 80%, the mortality at 200 ppm [2] was ≥ 80% and the percent effect (mortality or growth inhibition) at 200 ppm [4] was ≥ 80%. For the same compound, the percent control (mortality, anti-feedant effect or growth inhibition) at 200 ppm [5] was ≥ 80% and the percent effect (mortality or growth inhibition) at 200 ppm [6] was ≥ 80%.
For `CCS(=O)(=O)c1cc(C2CC2)cnc1-c1ncc2c(OCC(F)(F)C(F)(F)F)nccn12` [Compound P21, 3-(5-cyclopropyl-3-ethylsulfonyl-2-pyridyl)-8-(2,2,3,3,3-penta-fluoropropoxy)imidazo [1,5-a]pyrazine], the percent effect (mortality or growth inhibition) at 200 ppm [1] was ≥ 80%, the mortality at 200 ppm [2] was ≥ 80% and the percent effect (mortality or growth inhibition) at 200 ppm [4] was ≥ 80%. For the same compound, the percent control (mortality, anti-feedant effect or growth inhibition) at 200 ppm [5] was ≥ 80% and the percent effect (mortality or growth inhibition) at 200 ppm [6] was ≥ 80%.
In the case of `CCS(=O)(=O)c1ccc(-c2ncccn2)nc1-c1ncc2c(OCC(F)(F)C(F)(F)F)nccn12` [Compound P25, 3-(3-ethylsulfonyl-6-pyrimidin-2-yl-2-pyridyl)-8-(2,2,3,3,3-penta-fluoropropoxy)imidazo [1,5-a]pyrazine], the percent effect (mortality or growth inhibition) at 200 ppm [1] is reported as ≥ 80%, the mortality at 200 ppm [2] is reported as ≥ 80% and the percent effect (mortality or growth inhibition) at 200 ppm [4] is reported as ≥ 80%. For the same compound, the percent control (mortality, anti-feedant effect or growth inhibition) at 200 ppm [5] was ≥ 80% and the percent effect (mortality or growth inhibition) at 200 ppm [6] was ≥ 80%.
With `CCS(=O)(=O)c1cc(OC(C)(C)C#N)cnc1-c1ncc2c(OCC(F)(F)C(F)(F)F)nccn12` [Compound P51, 2-[[5-ethylsulfonyl-6-[8-(2,2,3,3,3-pentafluoropropoxy)imidazo [1,5-a]pyrazin-3-yl]-3-pyridyl]oxy]-2-methyl-propanenitrile] the percent effect (mortality or growth inhibition) at 200 ppm [1] was ≥ 80%, the mortality at 200 ppm [2] was ≥ 80% and the mortality at 200 ppm [3] was ≥ 80%. The mortality at 200 ppm [7] was ≥ 80%, the percent effect (mortality or growth inhibition) at 200 ppm [4] was ≥ 80% and the percent control (mortality, anti-feedant effect or growth inhibition) at 200 ppm [5] was ≥ 80%. The percent effect (mortality or growth inhibition) at 200 ppm [6] was ≥ 80%.
In the case of `CCS(=N)(=O)c1cc(OC(C)(C)C#N)cnc1-c1ncc2c(OCC(F)(F)C(F)(F)F)nccn12` (centres unmarked) [Compound P52, 2-[[5-(ethylsulfonimidoyl)-6-[8-(2,2,3,3,3-penta-fluoropropoxy)imidazo [1,5-a]pyrazin-3-yl]-3-pyridyl]oxy]-2-methyl-propanenitrile], the percent effect (mortality or growth inhibition) at 200 ppm [1] is reported as ≥ 80%, the mortality at 200 ppm [2] is reported as ≥ 80% and the mortality at 200 ppm [7] is reported as ≥ 80%. The percent control (mortality, anti-feedant effect or growth inhibition) at 200 ppm [5] was ≥ 80% and the percent effect (mortality or growth inhibition) at 200 ppm [6] was ≥ 80%.
